The values below come from ChEMBL document CHEMBL1157277, “Antifungal and antibacterial metabolites from a sclerotium-colonizing isolate of Mortierella vinacea” (1999).

Active and inactive are the calls of the source. The rule behind the calls is not given here.

Assay [1] relates to Candida albicans. The assay can be described thus: Antimicrobial activity against Candida albicans ATCC 10453 at 50 ug/disk by standard disk assay. It is filed as functional. Conditions: read-out: IZ.
Assay [2] has as its system Staphylococcus aureus. The assay can be described thus: Antimicrobial activity against Staphylococcus aureus ATCC 14053 at 50 ug/disk by standard disk assay. It is filed as functional, organism-based.
For assay [3], the system named is Bacillus subtilis. The assay can be described thus: Antimicrobial activity against Bacillus subtilis ATCC 6051 at 50 ug/disk by standard disk assay. It is filed as functional, organism-based.
In assay [4] the test system is Fusarium verticillioides. Put plainly: Antimicrobial activity against Fusarium verticillioides NRRL 25457 at 100 ug/disk by standard disk assay after 48 hrs. It is filed as functional, organism-based.
In assay [5] the test system is Bacillus subtilis. The assay can be described thus: Antimicrobial activity against Bacillus subtilis ATCC 6051 at 100 ug/disk by standard disk assay. It is filed as functional. To be noted: read-out: IZ.
The subject of assay [6] is Fusarium verticillioides. Put plainly: Antimicrobial activity against Fusarium verticillioides NRRL 25457 at 250 ug/disk by standard disk assay after 48 hrs. Conditions: for zone of inhibition at 250 µg/disc: NRRL 25457, 48 h, read-out: IZ. It is filed as functional.
A further assay relates to Aspergillus flavus. The assay can be described thus: Antimicrobial activity against Aspergillus flavus NRRL 6541 at 250 ug/disk by standard disk assay. It is filed as functional, organism-based.
Assay [7] has as its system Staphylococcus aureus. The assay can be described thus: Antimicrobial activity against Staphylococcus aureus ATCC 14053 at 100 ug/disk by standard disk assay. It is filed as functional. To be noted: read-out: IZ.
Assay [8] deals with Candida albicans. The assay can be described thus: Antimicrobial activity against Candida albicans ATCC 10453 at 100 ug/disk by standard disk assay. It is filed as functional. To be noted: read-out: IZ.

Take `CCCCC[C@@H](O)[C@H]1C(=O)O[C@H](C)[C@@H](O)/C=C/C=C/C=C/C=C/C=C(\C)[C@@H](O)C[C@H](O)C[C@H](O)C[C@H](O)C[C@H](O)C[C@H](O)C[C@@H]1O` [FILIPIN]: the zone of inhibition at 50 µg/disc in the assay with Candida albicans [1] stood at 15 mm.

As to GENTAMICIN SULFATE, the inhibition zone (IZ) with Staphylococcus aureus [2] and with Bacillus subtilis [3] was 24 mm in each case.

Consider NYSTATIN, for which the inhibition zone (IZ) in the assay with Fusarium verticillioides [4] was 19 mm.

Take `COC(=O)c1c(C)c(C)c(O)c(C)c1O`: the zone of inhibition at 100 µg/disc in the assay on Bacillus subtilis [5] and in the assay on Staphylococcus aureus [7] was 10 mm in each case. Also, the zone of inhibition at 250 µg/disc with Fusarium verticillioides [6] is 30 mm. Also, the result in the assay with Aspergillus flavus was inactive.

As for `COC(=O)[C@H](C)NC(=O)c1c(C)c(C)c(O)c(C)c1O`, the outcome in the assay on Fusarium verticillioides [6] and with Aspergillus flavus was inactive.

In the case of `CSC(=O)c1c(C)c(C)c(O)c(C)c1O` [MORTIVINACIN A], the zone of inhibition at 100 µg/disc in the assay with Candida albicans [8] worked out at 15 mm. Also, the zone of inhibition at 250 µg/disc with Fusarium verticillioides [6] was 30 mm. Further, the outcome in the assay on Aspergillus flavus was inactive.

Regarding `COC(=O)CNC(=O)c1c(C)c(C)c(O)c(C)c1O`, the result in the assay on Fusarium verticillioides [6] and in the assay on Aspergillus flavus was inactive.

`O=C(O)c1cccnc1` [NIACIN]: the zone of inhibition at 250 µg/disc in the assay on Fusarium verticillioides [6] stood at 30 mm. In the assay on Aspergillus flavus, the result was inactive.
